Test results taken from article PMC3324464, “The GPI Anchor Signal Sequence Dictates the Folding and Functionality of the Als5 Adhesin from Candida albicans” (PLoS ONE, 2012).
Like-named read-outs stand apart in the source and are kept apart here. Ends that are not written are not given here.

T1: GST-Als5 (Candida albicans, UniProt Q5A8T7 20-1327)
T1 construct: source: E. coli BL21, purified (glutathione-agarose); not shown: GST, N-terminal, kept
T1 sequence: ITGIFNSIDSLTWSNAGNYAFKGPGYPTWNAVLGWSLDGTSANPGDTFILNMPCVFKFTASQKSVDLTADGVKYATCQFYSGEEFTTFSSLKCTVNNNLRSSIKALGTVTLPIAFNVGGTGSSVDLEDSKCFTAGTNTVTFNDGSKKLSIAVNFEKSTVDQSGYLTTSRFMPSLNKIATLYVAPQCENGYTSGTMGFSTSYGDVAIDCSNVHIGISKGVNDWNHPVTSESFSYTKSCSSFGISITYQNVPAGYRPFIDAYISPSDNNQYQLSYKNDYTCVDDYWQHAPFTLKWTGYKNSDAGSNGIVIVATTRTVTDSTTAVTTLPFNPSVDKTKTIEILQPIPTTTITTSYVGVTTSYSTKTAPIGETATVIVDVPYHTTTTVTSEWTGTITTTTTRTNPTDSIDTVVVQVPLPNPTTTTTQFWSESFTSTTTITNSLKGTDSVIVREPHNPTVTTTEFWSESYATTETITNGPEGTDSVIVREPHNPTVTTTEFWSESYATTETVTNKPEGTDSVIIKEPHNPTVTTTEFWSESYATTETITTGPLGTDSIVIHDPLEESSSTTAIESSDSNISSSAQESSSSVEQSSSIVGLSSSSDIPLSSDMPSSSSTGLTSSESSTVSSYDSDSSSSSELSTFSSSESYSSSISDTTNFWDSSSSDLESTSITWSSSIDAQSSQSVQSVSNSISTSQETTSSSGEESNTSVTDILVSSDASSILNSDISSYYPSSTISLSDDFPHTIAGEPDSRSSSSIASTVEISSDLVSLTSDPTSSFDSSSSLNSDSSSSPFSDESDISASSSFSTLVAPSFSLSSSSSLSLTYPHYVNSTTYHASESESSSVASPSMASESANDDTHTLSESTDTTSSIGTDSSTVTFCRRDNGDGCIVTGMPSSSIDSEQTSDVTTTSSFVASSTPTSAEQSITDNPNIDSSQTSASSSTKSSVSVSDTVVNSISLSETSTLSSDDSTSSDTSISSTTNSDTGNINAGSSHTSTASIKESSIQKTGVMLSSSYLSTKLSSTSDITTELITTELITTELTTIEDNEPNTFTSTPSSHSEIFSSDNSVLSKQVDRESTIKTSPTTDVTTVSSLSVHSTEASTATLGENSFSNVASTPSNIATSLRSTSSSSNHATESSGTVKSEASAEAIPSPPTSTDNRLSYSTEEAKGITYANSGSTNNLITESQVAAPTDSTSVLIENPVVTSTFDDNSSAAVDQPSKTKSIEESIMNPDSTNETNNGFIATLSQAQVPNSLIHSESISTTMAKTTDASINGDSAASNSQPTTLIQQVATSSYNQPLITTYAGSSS


Legend:
[1] = target: T2, GST-Als5 (Candida albicans, UniProt Q5A8T7); test: biochemical; type: binding; settings: for Kd: 0.02 mg/ml protein, excitation 295 nm, one-site saturation model
T2 construct: made in house; host or cells: E. coli BL21(DE3)
Experimental: (§1) Binding of GST-Als5 and GST-Als5-SS proteins to different peptides was monitored by fluorescence emission spectroscopy. Freshly purified samples of protein were used each time. 0.02 mg/ml of the proteins were taken and the tryptophan-specific emission spectra were monitored between 310 nm to 400 nm by excitation at 295 nm. The peptides were titrated into the protein solutions, incubated for 5 minutes after each addition, and emission spectra recorded. Both excitation and emission bandwidths were fixed at 5 nm and all spectra were averages of 5 scans. All spectra were corrected for buffer and peptide backgrounds.
(§2) All binding data were analyzed using a one-site saturation model. Binding studies were done at different temperatures, and ΔG^o for the protein-peptide interactions calculated using the equation: ΔG^o = –RTlnKa. ΔH^o and ΔS^o were obtained from the slope and intercept of the van’t Hoff plots according to the equation: [drawing 1]
(§3) The change in fluorescence emission intensity upon titration with the peptide ligands was monitored (see Figures S8A, S8C, S8E, S8G and Figures S9A, S9C, S9E, S9G, respectively) and the binding plots obtained (Figures S8B, S8D, S8F, S8H and Figures S9B, S9D, S9F, S9H, respectively) were used to calculate dissociation constants (Kd) for the interaction (Table 1).
Supplementary file pone.0035305.s008.tif: Figure S8 Binding of GST-Als5 with different peptides. A, C, E and G show representative fluorescence spectra obtained upon binding of GST-Als5 with the peptide EHAHTPR at 15 °C, 27 °C, 37 °C and 47 °C, respectively. B, D, F and H represent the binding plots of GST-Als5 with different peptides at 15 °C, 27 °C, 37 °C and 47 °C, respectively. Each data point gives the average of three independent measurements done in duplicates and the error bars denote standard deviations. Spectra 1–7 represent binding of peptides with GST-Als5 in the following order of increasing concentrations of the peptides: 1: no peptide; 2: 0.037 µM; 3: 0.074 µM; 4: 0.443 µM; 5: 0.804 µM; 6: 1.154 µM; 7: 1.5 µM. (TIF) Click here for additional data file.

[2] = target: T3, GST-Als5-SS (Candida albicans, UniProt Q5A8T7); test: biochemical; type: binding
T3 construct: made in house; host or cells: E. coli BL21(DE3)
Experimental: as §1, §2
as §3, with “1). […]” for “1).”

[3] = target: T1, GST-Als5; test: other fluorescence titration; tryptophan fluorescence of 0.02 mg/ml protein, peptide titrated in; one-site saturation model; 42 °C; settings: both partners purified
[4] = target: T4, GST-Als5-SS (Candida albicans, UniProt Q5A8T7 20-1326, N-terminal GST tag (pGEX-6P-2) not cleaved, omitted here; expressed in E. coli, unglycosylated. The 4044 bp insert implies the full ORF, including the N-terminal secretion signal, although the figure); test: other fluorescence titration; van't Hoff plots of the association constants from the fluorescence titrations at different temperatures; ΔH° from the slope; settings: both partners purified
[5] = target: T1, GST-Als5; test: as above; settings: both partners purified
[6] = target: T4, GST-Als5-SS; test: other fluorescence titration; tryptophan fluorescence of 0.02 mg/ml protein, peptide titrated in; one-site saturation model; 52 °C (secondary structure of both proteins mildly perturbed at this temperature); settings: both partners purified
[7] = target: T1, GST-Als5; test: as above; settings: both partners purified
[8] = 15 °C, N.B. = no binding observed, emission 310-400 nm, average of three independent measurements in duplicates
[9] = 27 °C, N.B. = no binding observed, average of three independent measurements in duplicates
[10] = Kd, 37 °C, average of three independent measurements in duplicates
[11] = Kd, 47 °C, N.B. = no binding observed, average of three independent measurements in duplicates
[12] = Kd, 27 °C, N.B. = no binding observed, 0.02 mg/ml protein, excitation 295 nm, one-site saturation model, average of three independent measurements in duplicates
[13] = Kd, 37 °C, 0.02 mg/ml protein, excitation 295 nm, one-site saturation model, average of three independent measurements in duplicates
[14] = Kd, 47 °C, N.B. = no binding observed, 0.02 mg/ml protein, excitation 295 nm, one-site saturation model, average of three independent measurements in duplicates
[15] = 15 °C, N.B. = no binding observed, 0.02 mg/ml protein, excitation 295 nm, emission 310-400 nm, one-site saturation model, average of three independent measurements in duplicates

T3 sequence (Q5A8T7 whole entry): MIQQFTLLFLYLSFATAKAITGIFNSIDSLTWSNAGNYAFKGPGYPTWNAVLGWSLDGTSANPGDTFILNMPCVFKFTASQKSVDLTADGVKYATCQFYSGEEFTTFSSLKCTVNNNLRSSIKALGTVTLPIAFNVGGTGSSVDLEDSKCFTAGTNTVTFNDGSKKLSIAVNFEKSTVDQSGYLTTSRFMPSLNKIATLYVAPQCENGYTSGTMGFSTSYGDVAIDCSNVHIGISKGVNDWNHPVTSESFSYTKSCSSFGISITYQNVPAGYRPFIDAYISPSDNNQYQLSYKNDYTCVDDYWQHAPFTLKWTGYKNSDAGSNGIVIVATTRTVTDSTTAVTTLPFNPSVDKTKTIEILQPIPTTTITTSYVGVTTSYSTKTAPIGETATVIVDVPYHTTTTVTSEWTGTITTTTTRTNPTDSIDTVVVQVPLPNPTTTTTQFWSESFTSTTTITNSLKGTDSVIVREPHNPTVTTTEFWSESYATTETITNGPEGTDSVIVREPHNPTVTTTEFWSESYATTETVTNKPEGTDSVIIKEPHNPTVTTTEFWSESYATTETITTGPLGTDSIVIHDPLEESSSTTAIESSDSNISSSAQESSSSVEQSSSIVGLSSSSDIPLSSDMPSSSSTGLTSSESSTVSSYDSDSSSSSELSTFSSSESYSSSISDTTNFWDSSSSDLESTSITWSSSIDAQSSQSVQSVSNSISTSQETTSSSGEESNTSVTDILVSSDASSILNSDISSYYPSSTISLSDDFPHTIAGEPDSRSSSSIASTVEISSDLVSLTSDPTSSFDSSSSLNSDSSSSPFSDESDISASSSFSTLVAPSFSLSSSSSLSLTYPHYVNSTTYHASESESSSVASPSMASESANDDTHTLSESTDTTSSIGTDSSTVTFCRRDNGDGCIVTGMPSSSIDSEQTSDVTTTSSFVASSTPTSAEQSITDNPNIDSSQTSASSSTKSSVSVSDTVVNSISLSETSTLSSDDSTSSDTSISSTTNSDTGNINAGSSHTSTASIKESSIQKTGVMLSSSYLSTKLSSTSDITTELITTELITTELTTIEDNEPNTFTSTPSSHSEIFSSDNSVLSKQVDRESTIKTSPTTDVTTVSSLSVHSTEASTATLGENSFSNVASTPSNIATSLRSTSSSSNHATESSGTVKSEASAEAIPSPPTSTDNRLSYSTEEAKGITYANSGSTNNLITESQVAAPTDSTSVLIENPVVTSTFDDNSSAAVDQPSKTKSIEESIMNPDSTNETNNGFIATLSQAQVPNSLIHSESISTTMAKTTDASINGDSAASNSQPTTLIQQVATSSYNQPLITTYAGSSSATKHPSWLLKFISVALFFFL
T2 sequence (Q5A8T7 1-1327): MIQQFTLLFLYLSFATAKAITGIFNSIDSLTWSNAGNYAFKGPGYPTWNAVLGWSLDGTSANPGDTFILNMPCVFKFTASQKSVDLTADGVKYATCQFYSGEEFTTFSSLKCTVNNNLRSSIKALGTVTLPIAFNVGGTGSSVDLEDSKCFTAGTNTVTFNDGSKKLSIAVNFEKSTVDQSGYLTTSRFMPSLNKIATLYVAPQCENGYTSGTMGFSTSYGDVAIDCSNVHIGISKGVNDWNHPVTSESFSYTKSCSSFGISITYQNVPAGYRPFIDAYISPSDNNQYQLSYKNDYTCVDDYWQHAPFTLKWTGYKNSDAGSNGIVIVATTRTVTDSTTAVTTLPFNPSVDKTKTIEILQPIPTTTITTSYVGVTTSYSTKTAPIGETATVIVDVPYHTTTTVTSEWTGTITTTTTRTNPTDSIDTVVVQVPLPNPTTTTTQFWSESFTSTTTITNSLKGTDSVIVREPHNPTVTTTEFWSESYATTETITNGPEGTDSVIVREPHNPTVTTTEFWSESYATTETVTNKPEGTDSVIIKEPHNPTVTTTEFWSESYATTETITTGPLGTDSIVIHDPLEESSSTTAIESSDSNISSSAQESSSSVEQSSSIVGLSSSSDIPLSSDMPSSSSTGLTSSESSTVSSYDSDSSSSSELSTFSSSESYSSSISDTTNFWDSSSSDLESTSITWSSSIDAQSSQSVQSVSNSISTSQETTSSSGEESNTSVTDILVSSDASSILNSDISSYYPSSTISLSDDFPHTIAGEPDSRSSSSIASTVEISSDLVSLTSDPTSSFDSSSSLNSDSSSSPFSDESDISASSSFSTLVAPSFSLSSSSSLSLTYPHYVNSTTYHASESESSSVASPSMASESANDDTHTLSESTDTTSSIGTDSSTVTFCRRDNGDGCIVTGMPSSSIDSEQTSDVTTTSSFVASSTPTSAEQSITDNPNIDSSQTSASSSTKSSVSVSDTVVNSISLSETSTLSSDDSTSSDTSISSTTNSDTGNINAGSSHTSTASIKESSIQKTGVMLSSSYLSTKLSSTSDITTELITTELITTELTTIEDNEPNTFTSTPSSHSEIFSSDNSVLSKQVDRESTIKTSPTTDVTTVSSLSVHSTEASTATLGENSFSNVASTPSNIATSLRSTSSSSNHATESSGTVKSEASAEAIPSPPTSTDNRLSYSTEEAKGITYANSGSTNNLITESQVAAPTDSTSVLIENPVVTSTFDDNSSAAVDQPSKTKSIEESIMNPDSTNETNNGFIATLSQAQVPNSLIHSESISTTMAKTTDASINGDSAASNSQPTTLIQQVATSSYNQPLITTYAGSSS

Molecule | Kd [1, 8] | Kd [1, 9] | Kd [1, 10] [nM] | Kd ([1]; Kd, 42 °C) [nM] | Kd [1, 11] [nM] | Kd [2, 12] [nM] | Kd [2, 13] [nM] | Kd [2, 14] [nM] | Kd [2, 15] | Kd [3] [nM] | dH [4] [kcal/mol] | dH [5] [kcal/mol] | Kd [6] [nM] | Kd [7] [nM] | further results
EHAHTPR [EHAHTPR] | N.B. | N.B. | 160 ± 38 | 34 ± 8 | 34 ± 11 | 82 ± 16 | 44 ± 4 | 25 ± 9 | – | – | – | – | – | – | Kd [2]: 65 ± 13 nM
VSPIRLK [scrambled peptide] | – | N.B. | – | – | – | – | – | – | – | – | – | – | – | – | binding (in words) ([1]; 27 °C and 47 °C): showed no affinity for either of the protein variants; Kd ([1]; 47 °C, N.B. = no binding observed, average of three independent measurements in duplicates): N.B.; binding (in words) ([2]; 27 °C and 47 °C): showed no affinity for either of the protein variants; Kd ([2]; 27 °C, N.B. = no binding observed, 0.02 mg/ml protein, excitation 295 nm, one-site saturation model, average of three independent measurements in duplicates): N.B.; Kd ([2]; 47 °C, N.B. = no binding observed, 0.02 mg/ml protein, excitation 295 nm, one-site saturation model, average of three independent measurements in duplicates): N.B.
KLRIPSV [KLRIPSV] | N.B. | N.B. | 34 ± 12 | – | 7 ± 3 | 53 ± 6 | 17 ± 5 | 14 ± 2 | N.B. | – | – | – | – | – | Kd ([1]; Kd, 52 °C (secondary structure of protein mildly perturbed)): 7 ± 2 nM
AYKSLMT [AYKSLMT] | N.B. | N.B. | 13 ± 7 | 9 ± 4 | 13 ± 6 | 77 ± 2 | 6 ± 0.2 | 9 ± 2 | N.B. | – | – | – | – | – | –
EHAHTPR (source: synthetic peptide (USV Ltd.)) | – | – | – | – | – | – | – | – | – | 34 | 8.15 | 33.4 | 8 | 11 | –
KLRIPSV (source: synthetic peptide (USV Ltd.)) | – | – | – | – | – | – | – | – | – | 4 | 15.3 | 22.5 | 5 | 7 | –
